Literature values as cited in patent US20090054381A1, “METHODS FOR TREATING RESPIRATORY DISORDERS” (NitroMed, Inc., priority 2005, published 2009).
Counter-ions that a name gives are not always drawn.

| Compound | solubility in organic solvents (organic solvents such as ethanol, ether and chloroform) | solubility in water | solubility in alcohol (alcohol) | solubility in ether (ether) |
| --- | --- | --- | --- | --- |
| O=[N+]([O-])O[C@H]1CO[C@H]2[C@@H]1OC[C@H]2O[N+](=O)[O-] [Diluted isosorbide dinitrate, 1,4,3,6-dianhydro-D-glucitol-2,5-dinitrate] | freely soluble | sparingly soluble |  |  |
| NNc1nncc2ccccc12 [Hydralazine hydrochloride, hydralazine hydrochloride] |  | soluble | slightly soluble | very slightly soluble |
